Test results reported in EP4670722A1, “PROPHYLACTIC OR AMELIORATING AGENT FOR CELL AGING” (Kyowa Pharma Chemical Co., Ltd., priority 2023, dated 2024).

Experiments:
[1] = system: GLS1; test: GLS1 expression analysis (ELISA) in KKLS; format: cell-based; details: human gastric undifferentiated carcinoma cells (KKLS), at least 200 µg/mL or more, 24 hours; effect increased from 200 to 1000 µg/mL; Fig. 12
Description: Human gastric undifferentiated carcinoma cells (KKLS) were cultured in RPMI 1640 (manufactured by Nissui Pharmaceutical Co., Ltd.) containing 10% FBS. The cultured cells were collected by trypsin treatment. The collected cells were seeded in a 6-well plate, and when they reached 100% confluence, RPMI 1640 containing the test sample (2'-FL and lactose) at 50 µg/mL, 200 µg/mL, or 1000 µg/mL was added, and cultured for 24 hours in a 37°C, 5% CO2 incubator. The culture supernatant was removed, the cells were washed twice with PBS, and 0.20 mL of RIPA buffer was added to extract total protein. Protein in each protein extract was quantified by the Bradford assay.
Protein extracts were collected in the same manner as in [Example 10-1 B. Human gastric undifferentiated carcinoma cells (KKLS)], [Example 10-1 C. Mouse microglial cells (BV2)], [Example 10-1 D. Human gingival fibroblasts (Gin-1)], and [Example 10-1 E. Human umbilical vein endothelial cells (HUVEC)], respectively, except that a medium same as the above-mentioned medium but not containing the test sample was used instead of the medium containing the test sample, and protein in each protein extract was quantified by the Bradford assay.
An ELISA method was performed using an antibody against GLS1 to measure the amount of GLS1 in the samples. […]

[2] = system: GLS1; test: GLS1 expression analysis (Western blot) in HEK293; format: cell-based; details: human embryonic kidney cells (HEK293), at least 200 µg/mL or more, 24 hours; effect increased from 200 to 1000 µg/mL; Fig. 12
Description: Human embryonic kidney cells (HEK293) were cultured in DMEM containing 10% FBS. The cultured cells were collected by trypsin treatment. The collected cells were seeded in a 6-well plate, and when they reached 100% confluence, DMEM containing 2'-FL as a test sample at 50 µg/mL, 200 µg/mL, or 1000 µg/mL, and lactose at 50 µg/mL or 200 µg/mL was added, and cultured for 24 hours in a 37°C, 5% CO2 incubator. The culture supernatant was removed, the cells were washed twice with phosphate-buffered saline (PBS), and 0.20 mL of RIPA buffer (manufactured by Nacalai Tesque, Inc.) was added to extract total protein. Protein in each protein extract was quantified by the Bradford assay.
Protein extracts were collected in the same manner as in [Example 10-1 A. Human embryonic kidney cells (HEK293)], except that DMEM not containing the test sample was used instead of DMEM containing the test sample, and protein in each protein extract was quantified by the Bradford assay.
Western blot analysis was performed on each protein extract using an anti-GLS1 antibody and an anti-β-actin antibody. […] The intensity of color development was quantified using the open-source software 'ImageJ'. The relative value of the GLS1 amount relative to the β-actin amount when each test sample was added was calculated, with the GLS1 amount relative to the β-actin amount in the control set to 1. […]

For `C[C@@H]1O[C@@H](O[C@H]2[C@H](O[C@H]3[C@H](O)[C@@H](O)C(O)O[C@@H]3CO)O[C@H](CO)[C@H](O)[C@@H]2O)[C@@H](O)[C@H](O)[C@@H]1O` (some centres unmarked) [2'-FL, 2'-fucosyllactose], the GLS1 expression [1] was “suppressed GLS1 expression” and the GLS1 expression [2] was “suppressed GLS1 expression”.
